Structures are written as SMILES.

As a reminder, the IC50 is the concentration that inhibits the measured activity by half.

The target in this assay is T1, PAF receptor (human platelet plasma membrane) (Homo sapiens, UniProt P25105).
T1 construct: Platelet concentrates are obtained from a hospital blood bank; from tissue; host or cells: human platelets (concentrates from a hospital blood bank), lysed by freeze-thaw; membrane fraction
T1 sequence (P25105 whole entry): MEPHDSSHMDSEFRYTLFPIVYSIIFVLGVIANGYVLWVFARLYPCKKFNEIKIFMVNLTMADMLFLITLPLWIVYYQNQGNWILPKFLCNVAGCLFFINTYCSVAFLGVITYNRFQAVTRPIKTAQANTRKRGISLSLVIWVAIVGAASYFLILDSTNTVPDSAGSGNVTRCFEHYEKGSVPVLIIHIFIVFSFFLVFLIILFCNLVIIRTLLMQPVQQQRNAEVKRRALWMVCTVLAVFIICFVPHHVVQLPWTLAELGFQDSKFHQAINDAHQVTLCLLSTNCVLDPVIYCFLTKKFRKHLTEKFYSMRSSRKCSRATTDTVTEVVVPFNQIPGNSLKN
Kind of assay: Inhibition of [3H]-PAF receptor binding to human platelet plasma membrane. The note with it: [3H]-PAF 0.5 nM; 100 μg membrane fraction; 0° C.; 1 hour incubation; pH 7.0. As for the experimental part: Compounds of general formula I inhibit PAF-induced functions in both the cellular and tissue levels by changing the PAF binding to its specific receptor site. The ability of compounds of general formula I to inhibit the binding of PAF to its specific receptor binding site on human platelet plasma membranes was measured according to Example 24.
Inhibition of [^3 H]-PAF Receptor Binding
The inhibition of [^3 H]-PAF binding to human platelet plasma membrane by compounds of general formula I is determined by isotopic labelling and filtration techniques. Platelet concentrates are obtained from a hospital blood bank. These platelet concentrates (500-2500 ml.) are centrifuged at 800 rpm for 10 minutes in a SORVALL RC3B centrifuge to remove the red blood cells present. (The word SORVALL is a trade mark.) The supernatant is subsequently centrifuged at 3,000 rpm in a SORVALL RC3B centrifuge to pellet the platelets present. The platelet rich pellets are resuspended in a minimum volume of buffer (150 mM NaCl, 10 mM Tris, 2 mM EDTA, pH 7.5) and layered onto Ficoll-Paque gradients, 9 ml platelet concentrate to 2 ml Ficoll, and centrifuged at 1,900 rpm for 15 minutes in a SORVALL RT6000 centrifuge. This step removes the residual red blood cells and other nonspecific material such as lymphocytes from the preparation. The platelets which form a band between the plasma and the Ficoll are removed, resuspended in the above buffer and centrifuged at 3,000 rpm for 10 minutes in a SORVALL RT6000 centrifuge. The pelleted platelets are resuspended in buffer (10 mM Tris, 5 mM MgCl2, 2 mM EDTA, pH 7.0), snap freezed in liquid N2 and allowed to thaw slowly at room temperature in order to lyse the platelets. The latter step is repeated at least 3 times to ensure proper lysis. The lysed platelets are centrifuged at 3,000 rpm for 10 minutes in a SORVALL RT6000 centrifuge and resuspended in buffer. The latter step is repeated twice in order to remove any cytoplasmic proteins which may hydrolyse the platelet activating factor (PAF) receptor. The prepared platelet membranes may be stored at -70° C. After thawing the prepared membranes are centrifuged in a SORVALL RT6000 at 3,000 rpm for 10 minutes and resuspended in assay buffer.
The assay is conducted by preparing a series of Tris-buffered solutions of the selected antagonist of predetermined concentrations. Each of these solutions contained [^3 H]-PAF (0.5 nM; 1-O-[^3 H]octadecyl-2-acetyl-sn-glycero-3-phosphoryl choline with a specific activity of 132 Ci/mmol), […], a known amount of the test antagonist, and a sufficient amount of Tris-buffer solution (10 mM Tris, 5 mM MgC2, pH 7.0, 0.25% BSA) to make the final volume 1 ml. Incubation is initiated by the addition of 100 μg of the isolated membrane fraction to each of the above solutions at 0° C. Two control samples, one (C1) which contained all the ingredients described above except the antagonist and the other (C2) contains C1 plus a 1000-fold excess of unlabelled PAF, are also prepared and incubated simultaneously with the test samples. After 1 hour incubation, each solution is filtered rapidly under vacuo through a WHATMAN GF/C glass fibre filter in order to separate unbound PAF from bound PAF. (The word WHATMAN is a trade mark.) The residue in each case is rapidly washed 4 times with 5 ml cold (4° C.) Tris-buffer solution. Each washed residue is dried under vacuum on a sampling manifold and placed into vials containing 20 ml of OPTIPHASE MP scintillation fluid and the radioactivity counted in a liquid scintillation counter. (The word OPTIPHASE is a trade mark.) Defining the counts for total binding with antagonist from a test sample as "TBA"; the counts for total binding from the control sample C1 as "TB"; and the counts for nonspecific binding from the control sample C2 as "NSB"; the percent inhibition of each test antagonist can be determined by the following equation:
%Inhibition=[(TB-TBA)/SB]×100
where the specific binding SB=TB-NSB […]
`CCOC(=O)[C@H](CC(C)C)N(C)S(=O)(=O)c1ccc(Cn2ccc3ncnc-3c2)cc1` [Example 1, N-Methyl-N-4-(5H-imidazo[4,5-c]pyridylmethyl)phenylsulphonyl-L-leucine ethyl ester]: the half-inhibitory concentration (IC50) came to 5 nM.

In turn, `C=CCOC(=O)[C@H]([C@@H](C)CC)N(C)S(=O)(=O)c1ccc(Cn2ccc3nc(C)nc-3c2)cc1` [Example 4, N-Methyl-N-4-(5H-2-methylimidazo[4,5-c]pyridylmethyl)phenylsulphonyl-L-isoleucine allyl ester] showed an IC50 of 10 nM.

The compound `CCOC(=O)[C@H](CC(C)C)N(C)S(=O)(=O)c1ccc(Cn2ccc3nc(C)nc-3c2)c(Cl)c1` [Example 5, N-Methyl-N-4-(5H-2-methylimidazo[4,5-c]pyridylmethyl)-3-chlorophenylsulphonyl-L-leucine ethyl ester] displayed an IC50 of 2 nM.

In turn, `CCOC(=O)CN([C@@H](CC(C)C)C(=O)OCC)S(=O)(=O)c1ccc(Cn2ccc3nc(C)nc-3c2)cc1` [Example 6, N-Ethoxycarbonylmethyl-N-4-(5H-2-methylimidazo[4,5-c]pyridylmethyl)phenylsulphonyl-L-leucine ethyl ester] gave a concentration for half-maximal inhibition (IC50) of 10 nM.

In turn, `CCOC(=O)[C@H](CC(C)C)N(CC(=O)OC(C)(C)C)S(=O)(=O)c1ccc(Cn2ccc3nc(C)nc-3c2)cc1` [Example 8, N-t-Butyloxycarbonylmethyl-N-4-(5H-2-methylimidazo[4,5-c]pyridylmethyl)phenylsulphonyl-L-leucine ethyl ester] registered an IC50 of 15 nM.

On to `Cc1nc2ccn(Cc3ccc(S(=O)(=O)N(C)[C@H](CO[Si](c4ccccc4)(c4ccccc4)C(C)(C)C)CC(C)C)cc3)cc-2n1` [Example 21, N-Methyl-N-4-(5H-2-methylimidazo[4,5-c]pyridylmethyl)phenylsulphonyl-L-leucinyl t-butyldiphenylsilyl ether], for which the half-maximal inhibitory concentration (IC50) is 20 nM.

With `COC(C)C(C(C)C)N(C)S(=O)(=O)c1ccc(Cn2ccc3nc(C)nc-3c2)cc1` (stereo not shown) [Example 23, N-Methyl-N-4-(5H-2-methylimidazo[4,5-c]pyridylmethyl)phenylsulphonyl-2-methoxy-3-amino-4-methylpentane], the IC50 came out at 15 nM.
